Data set [1] has as its system Torpedograss. Description: Example 3: Torpedograss control trial. In kind it is in vivo, Torpedograss (Panicum repens). The settings on record: quinclorac 573 g ai/ha with and without metcamifen 75 g ai/ha; two applications, 21-day interval. An excerpt: (§1) Two applications were made on a 21-day interval.
For data set [2], the system named is blanket crabgrass. Description: Example 4: blanket crabgrass control trial in Floratam St Augustinegrass. The data set is classed as in vivo, blanket crabgrass (Digitaria serotina). To be noted: quinclorac 573 g ai/ha; two applications, 21-day interval.
Text: as §1

In data set [3] the test system is St Augustinegrass variety 'Floratam'. Description: Example 1: Floratam St Augustinegrass phytotoxicity trial. The settings on record: quinclorac alone, both formulations, 573 g ai/ha, two applications on 21-day interval.

We go through one compound from US20250295113A1, “COMPOSITION AND METHOD FOR CONTROLLING WEEDS” (priority 2022, published 2025).

Molecules are shown by their SMILES.

In the case of `O=C(O)c1c(Cl)ccc2cc(Cl)cnc12` [Quinclorac, 3,7-dichloro-8-quinolinecarboxylic acid], in data set [1], the “Torpedograss control / efficacy (in words)” value is given as “provided control of Torpedograss”. In addition, the “blanket crabgrass control (in words)” value in data set [2] is reported as “excellent, significant control”. Moreover, the “injury to Floratam St Augustinegrass (in words)” value in data set [3] is reported as “significant injury”.
